Measured values: patent publication US11708348B2, “Protease inhibitors for treatment of coronavirus infections” (The Scripps Research Institute, priority 2021, dated 2023)

What follows are compounds tested on SARS-CoV-2 strain USA-WA1/2020 (assay: microbe, parasite or virus in culture). Details: HeLa-ACE2 cells, SARS-CoV-2 infection, 24 h; read-out: EC50, uM (Hela).
Assay type: cell-based
“(S)-4-methyl-2-((l- methyl-1H-indole)-5- sulfonamido)-N-((S)- 3-oxo-1-((S)-2- oxopyrrolidin-3-yl)-4- (trifluoromethoxy)butan- 2-yl)pentanamide [Compound 463]” gave an EC50 of 0.2 to 0.5 µM.

Same assay, conditions: Severe acute respiratory syndrome coronavirus 2, HeLa-ACE2, 24 h, HeLa-ACE2 cells, SARS-CoV-2 infection, 24 h; class symbols; read-out: EC50, uM (Hela)
Compound `CC(C)C[C@H](NC(=O)/C=C/c1ccccc1F)C(=O)N[C@@H](C[C@@H]1CCNC1=O)C(=O)COc1c(F)c(F)cc(F)c1F` [Compound 60, (S)-2-((E)-3-(2-fluorophenyl)acrylamido)-4-methyl-N-((S)-3-oxo-1-((S)-2-oxopyrrolidin-3-yl)-4-(2,3,5,6-tetrafluorophenoxy)butan-2-yl)pentanamide] has an EC50 of 0.05 to 0.2 µM.
For `CC(C)C[C@H](NC(=O)C(=O)Nc1ccccc1F)C(=O)N[C@@H](C[C@@H]1CCNC1=O)C(=O)COc1cc(C(F)(F)F)on1` [Compound 141, N1-(2-fluorophenyl)-N2-((S)-4-methyl-1-oxo-1-(((S)-3-oxo-1-((S)-2-oxopyrrolidin-3-yl)-4-((5-(trifluoromethyl)isoxazol-3-yl)oxy)butan-2-yl)amino)pentan-2-yl)oxalamide], the EC50 was 0.5 to 1 µM.
In the case of `CC1(C)[C@@H]2[C@@H](C(=O)N[C@@H](C[C@@H]3CCNC3=O)C(=O)COC(F)(F)F)N(C(=O)[C@@H]3COCCO3)C[C@@H]21` [Compound 307, (1R,2S,5S)-3-((S)-1,4-dioxane-2-carbonyl)-6,6-dimethyl-N-((S)-3-oxo-1-((S)-2-oxopyrrolidin-3-yl)-4-(trifluoromethoxy)butan-2-yl)-3-azabicyclo[3.1.0]hexane-2-carboxamide], the EC50 is reported as 0.2 to 0.5 µM.
With `CC(C)C[C@H](NC(=O)OCc1ccc(F)cc1)C(=O)N[C@@H](C[C@@H]1CCNC1=O)C(=O)COc1c(F)c(F)cc(F)c1F` [Compound 23, 4-fluorobenzyl ((S)-4-methyl-1-oxo-1-(((S)-3-oxo-1-((S)-2-oxopyrrolidin-3-yl)-4-(2,3,5,6-tetra-fluorophenoxy)butan-2-yl)amino)pentan-2-yl)carbamate] the EC50 was 0.2 to 0.5 µM.
Compound `CC(C)C[C@H](NC(=O)C(=O)Nc1cc(F)ccc1F)C(=O)N[C@@H](C[C@@H]1CCNC1=O)C(=O)COc1c(F)c(F)cc(F)c1F` [Compound 72, Nl-(2,5-difluorophenyl)-N2-((S)-4-methyl-1-oxo-1-(((S)-3-oxo-1-((S)-2-oxopyrrolidin-3-yl)-4-(2,3,5,6-tetrafluorophenoxy)butan-2-yl)amino)pentan-2-yl)oxalamide] has an EC50 of 0.05 to 0.2 µM.
`O=C1NCC[C@H]1C[C@H](NC(=O)[C@@H]1CC2(CC2)CN1C(=O)C12CC(C(F)(F)F)(CO1)C2)C(=O)COC(F)(F)F` [Compound 317, (6S)—N-[(2S)-3-oxo-1-[(3S)-2-oxopyrrolidin-3-yl]-4-(trifluoromethoxy)butan-2-yl]-5-[4-(trifluoromethyl)-2-oxabicyclo[2.1.1]hexane-1-carbonyl]-5-azaspiro[2.4]heptane-6-carboxamide] showed an EC50 of under 0.05 µM.
`O=C(Nc1ccccc1F)C(=O)N[C@@H](CC1CCCCC1)C(=O)N[C@@H](C[C@@H]1CCNC1=O)C(=O)COc1c(F)c(F)cc(F)c1F` [Compound 61, N1-((S)-3-cyclohexyl-1-oxo-1-(((S)-3-oxo-1-((S)-2-oxopyrrolidin-3-yl)-4-(2,3,5,6-tetrafluorophenoxy)butan-2-yl)amino)propan-2-yl)-N2-(2-fluorophenyl)oxalamide] was tested, and the EC50 was under 0.05 µM.
For `CC(C)C[C@H](NC(=O)c1cc2ncccc2[nH]1)C(=O)N[C@@H](C[C@@H]1CCNC1=O)C(=O)COC(F)(F)F` [Compound 248, N-((S)-4-methyl-1-oxo-1-(((S)-3-oxo-1-((S)-2-oxopyrrolidin-3-yl)-4-(trifluoromethoxy)butan-2-yl)amino)pentan-2-yl)-1H-pyrrolo[3,2-b]pyridine-2-carboxamide], the EC50 was 0.2 to 0.5 µM.
Work on `CC(C)(C)C[C@H](O)C(=O)N1CC2(CC2)C[C@H]1C(=O)N[C@@H](C[C@@H]1CCNC1=O)C(=O)COC(F)(F)F` [Compound 349, (S)-5-((S)-2-hydroxy-4,4-dimethylpentanoyl)-N-((S)-3-oxo-1-((S)-2-oxopyrrolidin-3-yl)-4-(trifluoromethoxy)butan-2-yl)-5-azaspiro[2.4]heptane-6-carboxamide] yielded an EC50 of under 0.05 µM.
Compound `CC[C@@H]1C[C@]1(NC(=O)c1cc2cc(F)ccc2[nH]1)C(=O)N[C@@H](C[C@@H]1CCNC1=O)C(=O)COC(F)(F)F` [Compound 261, N-((1R,2R)-2-ethyl-1-(((S)-3-oxo-1-((S)-2-oxopyrrolidin-3-yl)-4-(trifluoromethoxy)butan-2-yl)carbamoyl)cyclopropyl)-5-fluoro-1H-indole-2-carboxamide] has an EC50 of 0.5 to 1 µM.
`CC(C)C[C@H](NC(=O)C12CC(C(F)F)(CO1)C2)C(=O)N[C@@H](C[C@@H]1CCNC1=O)C(=O)COC(F)(F)F` [Compound 319, 4-(difluoromethyl)-N-((S)-4-methyl-1-oxo-1-(((S)-3-oxo-1-((S)-2-oxopyrrolidin-3-yl)-4-(trifluoromethoxy)butan-2-yl)amino)pentan-2-yl)-2-oxabicyclo-[2.1.1]hexane-1-carboxamide] gave an EC50 of under 0.05 µM.
In the case of `COc1ccccc1[C@@H](O)C(=O)N1C[C@H]2[C@@H]([C@H]1C(=O)N[C@@H](C[C@@H]1CCNC1=O)C(=O)COC(F)(F)F)C2(C)C` [Compound 382, (1R,2S,5S)-3-((R)-2-hydroxy-2-(2-methoxyphenyl)acetyl)-6,6-dimethyl-N-((S)-3-oxo-1-((S)-2-oxopyrrolidin-3-yl)-4-(trifluoromethoxy)butan-2-yl)-3-azabicyclo-[3.1.0]hexane-2-carboxamide], the EC50 is reported as under 0.05 µM.
In the case of `CC(C)(C)C[C@H](NC(=O)c1cc2cc(F)ccc2[nH]1)C(=O)N[C@@H](C[C@@H]1CCNC1=O)C(=O)COc1c(F)c(F)cc(F)c1F` [Compound 13, N-((S)-4,4-dimethyl-1-oxo-1-(((S)-3-oxo-1-((S)-2-oxopyrrolidin-3-yl)-4-(2,3,5,6-tetrafluorophenoxy)butan-2-yl)amino)pentan-2-yl)-5-fluoro-1H-indole-2-carboxamide], the EC50 is reported as 0.5 to 1 µM.

Same assay, conditions: Severe acute respiratory syndrome coronavirus 2, HeLa-ACE2, 24 h, HeLa-ACE2 cells, SARS-CoV-2 infection, 24 h; read-out: EC50, uM (Hela)
Compound `CC(C)(C)NC(=O)C(=O)N1C[C@@]2(C[C@H]1C(=O)N[C@@H](C[C@@H]1CCNC1=O)C(=O)COC(F)(F)F)CC2(F)F` [Compound 518, (3R,6S)-5-(2-(tert-butylamino)-2-oxoacetyl)-1,1-difluoro-N-((S)-3-oxo-1-((S)-2-oxopyrrolidin-3-yl)-4-(trifluoromethoxy)butan-2-yl)-5-azaspiro[2.4]-heptane-6-carboxamide] has an EC50 of 0.05 to 0.2 µM.
`O=C1NCC[C@H]1C[C@H](NC(=O)[C@@H]1[C@H]2CCC[C@H]2CN1C(=O)c1cc(C(F)F)on1)C(=O)COC(F)(F)F` [Compound 500, (1S,3aR,6aS)-2-(5-(difluoromethyl)-isoxazole-3-carbonyl)-N-((S)-3-oxo-1-((S)-2-oxopyrrolidin-3-yl)-4-(trifluoromethoxy)butan-2-yl)octahydrocyclo-penta[c]pyrrole-1-carboxamide] was tested, and the EC50 was under 0.05 µM.
Work on `CC1(NC(=O)C(=O)N[C@@H](CC2CC2)C(=O)N[C@@H](C[C@@H]2CCNC2=O)C(=O)COC(F)(F)F)CC1` [Compound 585, N1-((S)-3-cyclopropyl-1-oxo-1-(((S)-3-oxo-1-((S)-2-oxopyrrolidin-3-yl)-4-(trifluoromethoxy)butan-2-yl)amino)propan-2-yl)-N2-(1-methylcyclo-propyl)oxalamide] yielded an EC50 of under 0.05 µM.
`Cn1ccc(NC(=O)C(=O)N2C[C@@H]3CCC[C@@H]3[C@H]2C(=O)N[C@@H](C[C@@H]2CCNC2=O)C(=O)COC(F)(F)F)n1` [Compound 534, (1S,3aR,6aS)-2-(2-((l-methyl-1H-pyrazol-3-yl)amino)-2-oxoacetyl)-N-((S)-3-oxo-1-((S)-2-oxopyrrolidin-3-yl)-4-(trifluoromethoxy)butan-2-yl)octahydrocyclo-penta[c]pyrrole-1-carboxamide] was tested, and the EC50 was 0.05 to 0.2 µM.
Work on `CC(C)C[C@@H](O)C(=O)N1CC(F)(F)C[C@H]1C(=O)N[C@@H](C[C@@H]1CCNC1=O)C(=O)COC(F)(F)F` [Compound 751, (S)-4,4-difluoro-1-((R)-2-hydroxy-4-methylpentanoyl)-N-((S)-3-oxo-1-((S)-2-oxopyrrolidin-3-yl)-4-(trifluoromethoxy)butan-2-yl)pyrrolidine-2-carboxamide] yielded an EC50 of 0.05 to 0.2 µM.
Work on `CC(C)(C)NC(=O)C(=O)N1CCC[C@@]1(CC1CC1)C(=O)N[C@@H](C[C@@H]1CCNC1=O)C(=O)COC(F)(F)F` [Compound 567, (R)-1-(2-(tert-butylamino)-2-oxoacetyl)-2-(cyclopro-pylmethyl)-N-((S)-3-oxo-1-((S)-2-oxopyrrolidin-3-yl)-4-(trifluoromethoxy)butan-2-yl)pyrrolidine-2-carboxamide] yielded an EC50 of 0.2 to 0.5 µM.
With `O=C1NCC[C@H]1C[C@H](NC(=O)[C@@H]1[C@H]2CCC[C@H]2CN1C(=O)c1noc2cc(Cl)ccc12)C(=O)COC(F)(F)F` [Compound 609, (1S,3aR,6aS)-2-(6-chlorobenzo[d]isoxazole-3-carbonyl)-N-((S)-3-oxo-1-((S)-2-oxopyrrolidin-3-yl)-4-(trifluoromethoxy)butan-2-yl)octahydrocyclopenta[c]pyrrole-1-carboxamide] the EC50 was under 0.05 µM.
`O=C1NCC[C@H]1C[C@H](NC(=O)[C@@H]1CC2(CC2)CN1C(=O)C1CCC(F)(F)CC1)C(=O)COC(F)(F)F` [Compound 661, (S)-5-(4,4-difluorocyclohexane-1-carbonyl)-N-((S)-3-oxo-1-((S)-2-oxopyrrolidin-3-yl)-4-(trifluoromethoxy)butan-2-yl)-5-azaspiro[2.4]heptane-6-carboxamide] was tested, and the EC50 was 0.05 to 0.2 µM.

Same assay, conditions: Severe acute respiratory syndrome coronavirus 2, HeLa-ACE2, 24 h; read-out: EC50, uM (Hela)
In the case of `COc1cccc2[nH]c(C(=O)N[C@@H](CC(C)C)C(=O)N[C@@H](CC3CCNC3=O)C(=O)COP(=O)(c3ccccc3)c3ccccc3)cc12` (stereo partly drawn) [Compound 195, (3S)-3-((S)-2-(4-methoxy-1H-indole-2-carboxamido)-4-methylpentanamido)-2-oxo-4-(2-oxopyrrolidin-3-yl)butyl diphenylphosphinate], the EC50 is reported as 0.05 to 0.2 µM.
